Data reported in patent US20260262643A1, “HERBICIDAL BENZOXAZINES” (FMC CORPORATION, priority 2022, published 2026).

Assays:
wheat [1] = assay: Test C preemergence; type: in vivo, Triticum aestivum; conditions: for Wheat plant response rating: 500 g ai/ha, preemergence, 0 to 100 scale (0 no effect, 100 complete control); for Plant response rating, Wheat: Preemergence, 125 g ai/ha, 0 to 100 scale, 0 no effect, 100 complete control
Method in brief: (§1)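 Soil-applied (pre) and foliar (post, 1–2 leaf, 2–10 cm) sprays; surfactant-containing non-phytotoxic solvent vehicle; loam/sand substrate. Readout: visual % control at 10 d, greenhouse, versus untreated.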

pigweed, palmer [2] = assay: Test C preemergence; type: in vivo, Amaranthus palmeri; conditions: for Pigweed, Palmer plant response rating: 500 g ai/ha, preemergence, 0 to 100 scale (0 no effect, 100 complete control); for Plant response rating, Pigweed, Palmer: Preemergence, 125 g ai/ha, 0 to 100 scale, 0 no effect, 100 complete control
Method in brief: as §1

barnyardgrass [3] = assay: Test D flooded paddy test; type: in vivo, Echinochloa crus-galli; conditions: 250 g ai/ha, applied to paddy water, visual rating after 13 to 14 days, scale 0 to 100 (0 no effect, 100 complete control)
Method in brief: (§2)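 Compounds go straight into paddy water over 2-leaf plants in pots flooded to 3 cm. Greenhouse holding lasts 13 to 14 days. Injury is scored by eye against controls from 0 (none) to 100 (complete control).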

galium = assay: Test C postemergence; type: in vivo, Galium aparine; conditions: 10 days, 0 to 100 scale (0 no effect, 100 complete control)
Method in brief: as §1

blackgrass [4] = assay: Test C preemergence; type: in vivo, Alopecurus myosuroides; conditions: for Blackgrass plant response rating: 500 g ai/ha, preemergence, 0 to 100 scale (0 no effect, 100 complete control); for Plant response rating, Blackgrass: Preemergence, 125 g ai/ha, 0 to 100 scale, 0 no effect, 100 complete control
Method in brief: as §1

ducksalad = assay: Test D flooded paddy test; type: in vivo, Heteranthera limosa; conditions: 250 g ai/ha, applied to paddy water, visual rating after 13 to 14 days, scale 0 to 100 (0 no effect, 100 complete control)
Method in brief: as §2

pigweed, palmer [5] = assay: Test C postemergence; type: in vivo, Amaranthus palmeri; conditions: 10 days, 0 to 100 scale (0 no effect, 100 complete control)
Method in brief: as §1

ryegrass, Italian [6] = assay: Test C preemergence; type: in vivo, Lolium multiflorum; conditions: for Ryegrass, Italian plant response rating: 500 g ai/ha, preemergence, 0 to 100 scale (0 no effect, 100 complete control); for Plant response rating, Ryegrass, Italian: Preemergence, 125 g ai/ha, 0 to 100 scale, 0 no effect, 100 complete control
Method in brief: as §1

corn [7] = assay: Test C postemergence; type: in vivo, Zea mays; conditions: 10 days, 0 to 100 scale (0 no effect, 100 complete control)
Method in brief: as §1

barnyardgrass [8] = assay: Test C preemergence; type: in vivo, Echinochloa crusgalli; conditions: for Barnyardgrass plant response rating: 500 g ai/ha, preemergence, 0 to 100 scale (0 no effect, 100 complete control); for Plant response rating, Barnyardgrass: Preemergence, 125 g ai/ha, 0 to 100 scale, 0 no effect, 100 complete control
Method in brief: as §1

blackgrass [9] = assay: Test C postemergence; type: in vivo, Alopecurus myosuroides; conditions: 10 days, 0 to 100 scale (0 no effect, 100 complete control)
Method in brief: as §1

ryegrass, Italian [10] = assay: Test C postemergence; type: in vivo, Lolium multiflorum; conditions: 10 days, 0 to 100 scale (0 no effect, 100 complete control)
Method in brief: as §1

horseweed = assay: Test C postemergence; type: in vivo, Erigeron canadensis; conditions: 10 days, 0 to 100 scale (0 no effect, 100 complete control)
Method in brief: as §1

kochia [11] = assay: Test C preemergence; type: in vivo, Bassia scoparia; conditions: for Kochia plant response rating: 500 g ai/ha, preemergence, 0 to 100 scale (0 no effect, 100 complete control); for Plant response rating, Kochia: Preemergence, 125 g ai/ha, 0 to 100 scale, 0 no effect, 100 complete control
Method in brief: as §1

barnyardgrass [12] = assay: Test C postemergence; type: in vivo, Echinochloa crusgalli; conditions: 10 days, 0 to 100 scale (0 no effect, 100 complete control)
Method in brief: as §1

soybean [13] = assay: Test C postemergence; type: in vivo, Glycine max; conditions: 10 days, 0 to 100 scale (0 no effect, 100 complete control)
Method in brief: as §1

kochia [14] = assay: Test C postemergence; type: in vivo, Bassia scoparia; conditions: 10 days, 0 to 100 scale (0 no effect, 100 complete control)
Method in brief: as §1

wheat [15] = assay: Test C postemergence; type: in vivo, Triticum aestivum; conditions: 10 days, 0 to 100 scale (0 no effect, 100 complete control)
Method in brief: as §1

green foxtail [16] = assay: Test C preemergence; type: in vivo, Setaria viridis; conditions: for Foxtail, Green plant response rating: 500 g ai/ha, preemergence, 0 to 100 scale (0 no effect, 100 complete control); for Plant response rating, Foxtail, Green: Preemergence, 125 g ai/ha, 0 to 100 scale, 0 no effect, 100 complete control
Method in brief: as §1

ragweed [17] = assay: Test C preemergence; type: in vivo, Ambrosia artemisiifolia; conditions: for Ragweed plant response rating: 500 g ai/ha, preemergence, 0 to 100 scale (0 no effect, 100 complete control); for Plant response rating, Ragweed: Preemergence, 125 g ai/ha, 0 to 100 scale, 0 no effect, 100 complete control
Method in brief: as §1

oat, wild = assay: Test C postemergence; type: in vivo, Avena fatua; conditions: 10 days, 0 to 100 scale (0 no effect, 100 complete control)
Method in brief: as §1

rice = assay: Test D flooded paddy test; type: in vivo, Oryza sativa; conditions: 250 g ai/ha, applied to paddy water, visual rating after 13 to 14 days, scale 0 to 100 (0 no effect, 100 complete control)
Method in brief: as §2

corn [18] = assay: Test C preemergence; type: in vivo, Zea mays; conditions: for Corn plant response rating: 500 g ai/ha, preemergence, 0 to 100 scale (0 no effect, 100 complete control); for Plant response rating, Corn: Preemergence, 125 g ai/ha, 0 to 100 scale, 0 no effect, 100 complete control
Method in brief: as §1

green foxtail [19] = assay: Test C postemergence; type: in vivo, Setaria viridis; conditions: 10 days, 0 to 100 scale (0 no effect, 100 complete control)
Method in brief: as §1

sedge, umbrella = assay: Test D flooded paddy test; type: in vivo, Cyperus difformis; conditions: 250 g ai/ha, applied to paddy water, visual rating after 13 to 14 days, scale 0 to 100 (0 no effect, 100 complete control)
Method in brief: as §2

ragweed [20] = assay: Test C postemergence; type: in vivo, Ambrosia artemisiifolia; conditions: 10 days, 0 to 100 scale (0 no effect, 100 complete control)
Method in brief: as §1

soybean [21] = assay: Test C preemergence; type: in vivo, Glycine max; conditions: for Soybean plant response rating: 500 g ai/ha, preemergence, 0 to 100 scale (0 no effect, 100 complete control); for Plant response rating, Soybean: Preemergence, 125 g ai/ha, 0 to 100 scale, 0 no effect, 100 complete control
Method in brief: as §1

C[C@H]1CN(C(=O)c2cccc(-n3cnc(OS(C)(=O)=O)n3)c2)c2cccc(Cl)c2O1 [Compound 356]
Wheat plant response rating (wheat [1]): 0 | Plant response rating, Wheat (wheat [1]): 0 | Pigweed, Palmer plant response rating (pigweed, palmer [2]): 100 | Plant response rating, Pigweed, Palmer (pigweed, palmer [2]): 40 | Plant response rating, Barnyardgrass (Flood) (barnyardgrass [3]): 0 | Plant response rating, Galium (galium; 500 g ai/ha, postemergence): 100 | Plant response rating, Galium (galium; Postemergence, 125 g ai/ha): 90 | Blackgrass plant response rating (blackgrass [4]): 20 | Plant response rating, Blackgrass (blackgrass [4]): 0 | Plant response rating, Ducksalad (Flood) (ducksalad): 0 | Plant response rating, Pigweed, Palmer (pigweed, palmer [5]; 500 g ai/ha, postemergence): 70 | Plant response rating, Pigweed, Palmer (pigweed, palmer [5]; Postemergence, 125 g ai/ha): 40 | Ryegrass, Italian plant response rating (ryegrass, Italian [6]): 80 | Plant response rating, Ryegrass, Italian (ryegrass, Italian [6]): 70 | Plant response rating, Corn (corn [7]; 500 g ai/ha, postemergence): 20 | Plant response rating, Corn (corn [7]; Postemergence, 125 g ai/ha): 10 | Barnyardgrass plant response rating (barnyardgrass [8]): 50 | Plant response rating, Barnyardgrass (barnyardgrass [8]): 10 | Plant response rating, Blackgrass (blackgrass [9]; 500 g ai/ha, postemergence): 50 | Plant response rating, Blackgrass (blackgrass [9]; Postemergence, 125 g ai/ha): 0 | Plant response rating, Ryegrass, Italian (ryegrass, Italian [10]; 500 g ai/ha, postemergence): 80 | Plant response rating, Ryegrass, Italian (ryegrass, Italian [10]; Postemergence, 125 g ai/ha): 30 | Plant response rating, Horseweed (horseweed; 500 g ai/ha, postemergence): 40 | Plant response rating, Horseweed (horseweed; Postemergence, 125 g ai/ha): 30 | Kochia plant response rating (kochia [11]): 90 | Plant response rating, Kochia (kochia [11]): 0 | Plant response rating, Barnyardgrass (barnyardgrass [12]; 500 g ai/ha, postemergence): 20 | Plant response rating, Barnyardgrass (barnyardgrass [12]; Postemergence, 125 g ai/ha): 10 | Plant response rating, Soybean (soybean [13]; 500 g ai/ha, postemergence): 100 | Plant response rating, Soybean (soybean [13]; Postemergence, 125 g ai/ha): 100 | Plant response rating, Kochia (kochia [14]; 500 g ai/ha, postemergence): 80 | Plant response rating, Kochia (kochia [14]; Postemergence, 125 g ai/ha): 50 | Plant response rating, Wheat (wheat [15]; 500 g ai/ha, postemergence): 20 | Plant response rating, Wheat (wheat [15]; Postemergence, 125 g ai/ha): 10 | Foxtail, Green plant response rating (green foxtail [16]): 90 | Plant response rating, Foxtail, Green (green foxtail [16]): 30 | Ragweed plant response rating (ragweed [17]): 0 | Plant response rating, Ragweed (ragweed [17]): 0 | Plant response rating, Oat, Wild (oat, wild; 500 g ai/ha, postemergence): 20 | Plant response rating, Oat, Wild (oat, wild; Postemergence, 125 g ai/ha): 10 | Plant response rating, Rice (Flood) (rice): 0 | Corn plant response rating (corn [18]): 10 | Plant response rating, Corn (corn [18]): 0 | Plant response rating, Foxtail, Green (green foxtail [19]; 500 g ai/ha, postemergence): 30 | Plant response rating, Foxtail, Green (green foxtail [19]; Postemergence, 125 g ai/ha): 10 | Plant response rating, Sedge, Umbrella (Flood) (sedge, umbrella): 0 | Plant response rating, Ragweed (ragweed [20]; 500 g ai/ha, postemergence): 30 | Plant response rating, Ragweed (ragweed [20]; Postemergence, 125 g ai/ha): 20 | Soybean plant response rating (soybean [21]): 0 | Plant response rating, Soybean (soybean [21]): 0

CC(=O)c1ncn(-c2ccc(C)c(C(=O)N3C[C@H](C)Oc4c(Cl)cccc43)c2)n1 [Compound 360]
Wheat plant response rating (wheat [1]): 80 | Plant response rating, Wheat (wheat [1]): 40 | Pigweed, Palmer plant response rating (pigweed, palmer [2]): 90 | Plant response rating, Pigweed, Palmer (pigweed, palmer [2]): 30 | Plant response rating, Barnyardgrass (Flood) (barnyardgrass [3]): 45 | Plant response rating, Galium (galium; 500 g ai/ha, postemergence): 100 | Plant response rating, Galium (galium; Postemergence, 125 g ai/ha): 100 | Blackgrass plant response rating (blackgrass [4]): 100 | Plant response rating, Blackgrass (blackgrass [4]): 80 | Plant response rating, Ducksalad (Flood) (ducksalad): 100 | Plant response rating, Pigweed, Palmer (pigweed, palmer [5]; 500 g ai/ha, postemergence): 90 | Plant response rating, Pigweed, Palmer (pigweed, palmer [5]; Postemergence, 125 g ai/ha): 60 | Ryegrass, Italian plant response rating (ryegrass, Italian [6]): 90 | Plant response rating, Ryegrass, Italian (ryegrass, Italian [6]): 80 | Plant response rating, Corn (corn [7]; 500 g ai/ha, postemergence): 90 | Plant response rating, Corn (corn [7]; Postemergence, 125 g ai/ha): 90 | Barnyardgrass plant response rating (barnyardgrass [8]): 100 | Plant response rating, Barnyardgrass (barnyardgrass [8]): 100 | Plant response rating, Blackgrass (blackgrass [9]; 500 g ai/ha, postemergence): 90 | Plant response rating, Blackgrass (blackgrass [9]; Postemergence, 125 g ai/ha): 80 | Plant response rating, Ryegrass, Italian (ryegrass, Italian [10]; 500 g ai/ha, postemergence): 100 | Plant response rating, Ryegrass, Italian (ryegrass, Italian [10]; Postemergence, 125 g ai/ha): 70 | Plant response rating, Horseweed (horseweed; 500 g ai/ha, postemergence): 30 | Kochia plant response rating (kochia [11]): 80 | Plant response rating, Kochia (kochia [11]): 20 | Plant response rating, Barnyardgrass (barnyardgrass [12]; 500 g ai/ha, postemergence): 100 | Plant response rating, Barnyardgrass (barnyardgrass [12]; Postemergence, 125 g ai/ha): 90 | Plant response rating, Soybean (soybean [13]; 500 g ai/ha, postemergence): 100 | Plant response rating, Soybean (soybean [13]; Postemergence, 125 g ai/ha): 100 | Plant response rating, Kochia (kochia [14]; 500 g ai/ha, postemergence): 70 | Plant response rating, Kochia (kochia [14]; Postemergence, 125 g ai/ha): 20 | Plant response rating, Wheat (wheat [15]; 500 g ai/ha, postemergence): 50 | Plant response rating, Wheat (wheat [15]; Postemergence, 125 g ai/ha): 30 | Foxtail, Green plant response rating (green foxtail [16]): 100 | Plant response rating, Foxtail, Green (green foxtail [16]): 100 | Ragweed plant response rating (ragweed [17]): 100 | Plant response rating, Ragweed (ragweed [17]): 80 | Plant response rating, Oat, Wild (oat, wild; 500 g ai/ha, postemergence): 90 | Plant response rating, Oat, Wild (oat, wild; Postemergence, 125 g ai/ha): 30 | Plant response rating, Rice (Flood) (rice): 15 | Corn plant response rating (corn [18]): 70 | Plant response rating, Corn (corn [18]): 60 | Plant response rating, Foxtail, Green (green foxtail [19]; 500 g ai/ha, postemergence): 90 | Plant response rating, Foxtail, Green (green foxtail [19]; Postemergence, 125 g ai/ha): 90 | Plant response rating, Sedge, Umbrella (Flood) (sedge, umbrella): 90 | Plant response rating, Ragweed (ragweed [20]; 500 g ai/ha, postemergence): 80 | Plant response rating, Ragweed (ragweed [20]; Postemergence, 125 g ai/ha): 50 | Soybean plant response rating (soybean [21]): 100 | Plant response rating, Soybean (soybean [21]): 80
